For test [1], the system named is carrageenin-induced edema in the hind paw of a rat. Description: Carrageenin Assay (carrageenin-induced edema, hind paw). Type of test: in vivo, rat (male, Long Evans strain). The note with it: 1 h before carrageenin, edema at 3 h, compared to phenylbutazone control values; for inhibition in vivo at 175 mg/kg: 175 mg/kg oral; for inhibition in vivo at 150 mg/kg: 150 mg/kg oral. As for the experimental part:
The procedure employed is a modification of the method of Winter et al, Proc. Soc. Exptl. Biol. Med. 111:544 (1962). The device used for measurement of the paw volume is an adaptation of the water displacement procedure described by Adamkiewicz et al, Can. J. Biochem. Physiol. 33:332 (1955). Test compounds were administered orally, one hour prior to the intraplantar injection of 0.05 ml. of sterile 1.0 percent solution of carrageenin into the left hind paw of male rats (Long Evans strain) weighing between about 130-200 grams. At peak swelling time (3 hours) the volume of edema was calculated by differential paw volumes.
Table I sets forth the results obtained (indicated as percent reduction of edema compared to phenylbutazone control values) at the indicated dosages for each of the identified compounds.
On the technique in general: Carrageenan injected into the paw causes an acute inflammation.

Test [2] relates to phenylquinone writhing in mice. Description: Phenylquinone Writhing Assay (analgesia). It is filed as in vivo, mouse (Carworth CF1 male mice). Here is the method:
The phenylquinone writhing test was employed to evaluate analgesic activity according to the following procedure:
Phenylquinone (phenyl-p-benzoquinone, No. 7104, Eastman Organic Chemicals) is made up as a 0.02% aqueous solution in 5% ethyl alcohol. Phenylquinone solutions are made up fresh twice daily. Standard reference agents and the test compounds are dissolved or suspended in a 0.25% methylcellulose solution. A control group consisting of ten mice (Carworth CF1 male mice) are administered the 0.02% phenylquinone solution at a dose of 0.25 ml/mouse. The mice are housed individually and observed closely for ten minutes for exhibition of writhing. The onset of writhing occurs within three minutes and 100% of the mice must writhe within ten minutes. Test compounds are administered orally to groups of ten mice. The volume given is 0.01 ml/gram of body weight. Activity can be studied at 15, 30, 60, and 120 minutes after oral administration. After the designated time interval of a dose group has elapsed, the mice are challenged with phenylquinone intraperitoneally. Complete blocking of the writhing syndrom for the ten minute observation period in any one mouse is considered a positive analgesic response for that mouse. Conversely, if any mouse writhes definitely once it is considered not to be protected. The number of mice not writhing in group multiplied by ten equals percent analgesia for that dose at that time interval.
In general terms: Writhing tests count abdominal constrictions after an irritant is injected.

[3] abbreviates: Rattus norvegicus, read-out: % Reduction of Edema.
[4] abbreviates: Mus musculus, po, 0.25 h, 50 mg/kg oral, 15 Min., read-out: Phenylquinone Writhing Assay (% Control), percent analgesia.
[5] abbreviates: Mus musculus, po, 0.5 h, 100 mg/kg oral, 30 Min., read-out: Phenylquinone Writhing Assay (% Control), percent analgesia.
[6] abbreviates: Rattus norvegicus, 200 mg/kg oral, read-out: % Reduction of Edema.
Setting [7] is: Mus musculus, po, 0.5 h, 50 mg/kg oral, 30 Min., read-out: Phenylquinone Writhing Assay (% Control), percent analgesia.
Where [8] appears, read: Mus musculus, po, 1 h, 50 mg/kg oral, 60 Min, read-out: Phenylquinone Writhing Assay (% Control), percent analgesia.

Counter-ions that a name gives are not always drawn. Like-named read-outs stand apart in the source and are kept apart here.

Data on 32 compounds can be found in patent publication US4157392A, “Pharmacologically active substituted 1,2,4-triazines” (Diamond Shamrock Corporation, priority 1978, dated 1979).

Regarding “3-methoxy-5,6-di(4'-methylphenoxy)-1,2,4-triazine [Example 26]”, the “% Reduction of Edema” value in test [1] (200 mg/kg oral) is recorded as 12%. Further, the “Phenylquinone Writhing Assay (% Control), percent analgesia” value came to 10% in test [2] (25 mg/kg oral, 15 Min.); 10% in test [2] (25 mg/kg oral, 30 Min.); 10% in test [2] (25 mg/kg oral, 60 Min); 40% in test [2] (50 mg/kg oral, 15 Min.); 10% in test [2] (50 mg/kg oral, 30 Min.); 20% in test [2] (50 mg/kg oral, 60 Min). In addition, the “Phenylquinone Writhing Assay (% Control), percent analgesia” value in test [2] (100 mg/kg oral, 15 Min.) is 20%; in test [2] (100 mg/kg oral, 30 Min.), 50%; in test [2] (100 mg/kg oral, 60 Min) it was 50%. In the case of `CSc1nncc(-c2ccccc2)n1` [Example 1, 3-methylthio-5-phenyl-1,2,4-triazine], the inhibition in vivo at 175 mg/kg in test [1] (setting [3]) is 27%. Further, the responders at 50 mg/kg in test [2] (setting [4]) was 10%. Besides, the responders at 100 mg/kg in test [2] (setting [5]) was 10%. For `CSc1nncc(C(C)(C)C)n1` [Example 4, 3-methylthio-5-t-butyl-1,2,4-triazine], the inhibition in vivo at 150 mg/kg in test [1] (setting [3]) came to 57%. For the same compound, in test [2] (setting [5]), the responders at 100 mg/kg came to 20%. As to `CC(C)(C)c1cnnc(NN)n1` [Example 5, 3-hydrazino-5-t-butyl-1,2,4-triazine], in test [1] (setting [3]), the inhibition in vivo at 175 mg/kg was 82%. Also, in test [2] (Mus musculus, po, 0.5 h, 25 mg/kg oral, 30 Min., read-out: Phenylquinone Writhing Assay (% Control), percent analgesia), the responders at 25 mg/kg stood at 20%. Regarding `CSc1nncc(-c2cccs2)n1` [Example 6, 3-methylthio-5-(2'-thienyl)-1,2,4-triazine], the inhibition in vivo at 200 mg/kg in test [1] (setting [6]) amounted to 51%. In addition, in test [2] (Mus musculus, po, 0.25 h, 25 mg/kg oral, 15 Min., read-out: Phenylquinone Writhing Assay (% Control), percent analgesia), the responders at 25 mg/kg came out at 20%. For the same compound, in test [2] (setting [7]), the responders at 50 mg/kg amounted to 70%. With `COc1nncc(-c2cccc(C(F)(F)F)c2)n1` [Example 8, 3-methoxy-5-(3'-trifluoromethylphenyl)-1,2,4-triazine], in test [1] (Rattus norvegicus, 100 mg/kg oral, read-out: % Reduction of Edema), the inhibition in vivo at 100 mg/kg worked out at 77%. Further, in test [2] (Mus musculus, po, 0.5 h, 70 mg/kg oral, 30 Min., read-out: Phenylquinone Writhing Assay (% Control), percent analgesia), the responders at 70 mg/kg is 10%. `CSc1nncc(-c2ccco2)n1` [Example 9, 3-methylthio-5-(2-furyl)-1,2,4-triazine]: the inhibition in vivo at 200 mg/kg in test [1] (setting [6]) worked out at 39%. Further, the responders at 50 mg/kg in test [2] (setting [7]) turned out to be 50%; in test [2] (setting [8]), 10%. As for `CSc1nncc(-c2c[nH]c3ccccc23)n1` [Example 13, 3-methylthio-5-(3'-indolyl)-1,2,4-triazine], the inhibition in vivo at 200 mg/kg in test [1] (setting [6]) was 71%. On to `CSc1nnc(-c2ccc(NC(C)=O)cc2)c(-c2ccc(NC(C)=O)cc2)n1` [Example 14, 3-methylthio-5,6-(4'-acetamidophenyl)-1,2,4-triazine], for which the inhibition in vivo at 200 mg/kg in test [1] (setting [6]) came out at 12%. On the same count and under the same terms, the same measure for `COc1nncc(C)n1` [Example 17, 3-methoxy-5-methyl-1,2,4-triazine]: 8%. Still for that read-out and setting: next, `CCOc1nncc(-c2ccccc2)n1` [Example 21, 3-ethoxy-5-phenyl-1,2,4-triazine]: 96%.

Consider `COc1nnc(C)c(C)n1` [Example 23, 3-methoxy-5,6-dimethyl-1,2,4-triazine], for which the inhibition in vivo at 40 mg/kg in test [1] (Rattus norvegicus, 40 mg/kg oral, read-out: % Reduction of Edema) was found to be 4%.

`COc1nnc(-c2ccccn2)c(-c2ccccn2)n1` [Example 27, 3-methoxy-5,6-di(2'-pyridyl)-1,2,4-triazine]: the inhibition in vivo at 200 mg/kg in test [1] (setting [6]) is 46%. On the same count and under the same terms, next, `COc1ccc(-c2cnnc(SC)n2)cc1OC` [Example 33, 3-methylthio-5-(3',4'-dimethoxyphenyl)-1,2,4-triazine]: 32%.

Turning to `COc1nncc(C23CC4CC(CC(C4)C2)C3)n1` [Example 36, 3-methoxy-5-(1'-adamantyl)-1,2,4-triazine], the inhibition in vivo at 150 mg/kg in test [1] (setting [3]) is 30%. `COc1nncc(C2CC2)n1` [Example 41, 3-methoxy-5-cyclopropyl-1,2,4-triazine]: in test [1] (setting [6]), the inhibition in vivo at 200 mg/kg stood at 57%.

As to `COc1nncc(-c2ccc(Br)cc2)n1` [Example 45, 3-methoxy-5-(4'-bromophenyl)-1,2,4-triazine], in test [1] (setting [6]), the inhibition in vivo at 200 mg/kg was 33%. Same read-out and setting: next, `COc1ccc(-c2cnnc(OC)n2)cc1` [Example 46, 3-methoxy-5-(4'-methoxyphenyl)-1,2,4-triazine]: 17%; `C=CCOc1nncc(-c2ccccc2)n1` [Example 47, 3-allyloxy-5-phenyl-1,2,4-triazine]: 67%. On the same count and under the same terms, the same measure for `Clc1nnc(-c2ccccc2)c(-c2ccccc2)n1` [Example 51, 3-chloro-5,6-diphenyl-1,2,4-triazine]: 4%; for `Cc1nnc(SCc2ccccc2)nc1C` [Example 56, 3-benzylthio-5,6-dimethyl-1,2,4-triazine]: 52%. Still for that read-out and setting: next, `CSc1nncc(-c2ccc([N+](=O)[O-])cc2)n1` [Example 57, 3-methylthio-5-(4'-nitrophenyl)-1,2,4-triazine]: 16%. Take `COc1nncc(-c2ccc(F)cc2F)n1` [Example 58, 3-methoxy-5-(2',4'-difluorophenyl)-1,2,4-triazine]: in test [1] (setting [3]), the inhibition in vivo at 150 mg/kg worked out at 36%. Same read-out and setting: the same measure for `CSc1nncc(-c2ccccc2)n1` [Example 59, 3-methylthio-5-phenyl-1,2,4-triazine (hydrogen iodide salt)]: 14%. Take `Cc1ccc(Oc2nnc(-c3ccccc3)c(-c3ccccc3)n2)cc1` [Example 60, 3-(4'-methylphenoxy)-5,6-diphenyl-1,2,4-triazine]: the inhibition in vivo at 200 mg/kg in test [1] (setting [6]) came to 18%. Still for that read-out and setting: next, `CCOc1nnc(-c2ccccc2)c(-c2ccccc2)n1` [Example 61, 3-ethoxy-5,6-diphenyl-1,2,4-triazine]: 12%; `CCc1ccc(-c2cnnc(SC)n2)cc1` [Example 62, 3-methylthio-5-(4'-ethylphenyl)-1,2,4-triazine]: 33%; `COc1ccc(Oc2nncc(-c3ccccc3)n2)cc1` [Example 63, 3-(4'-methoxyphenoxy)-5-phenyl-1,2,4-triazine]: 15%.

With `CCCCCOc1nncc(-c2ccccc2)n1` [Example 64, 3-n-pentoxy-5-phenyl-1,2,4-triazine], the inhibition in vivo at 200 mg/kg in test [1] (setting [6]) is 29%. For the compound `NCC(=O)NNc1nncc(-c2ccccc2)n1` [Example 113, N2-(5-Phenyl-1,2,4-Triazin-3-yl) Glycine Hydrazide (Dihydrobromide Hydrate)], the inhibition in vivo at 50 mg/kg in test [1] (Rattus norvegicus, 50 mg/kg oral, read-out: % Reduction of Edema) is 32%.

In the case of `CC(N)C(=O)NNc1nncc(-c2ccc(Cl)cc2)n1` (stereo not drawn) [Example 114, N2-(5-p-chlorophenyl-1,2,4-triazin-3-yl) alanine hydrazide (dihydrobromide hydrate)], the figures for the responders at 50 mg/kg in test [2] (setting [4]), in test [2] (setting [7]) and in test [2] (setting [8]) were 50%, 50% and 60%, respectively.

As to `NC(Cc1ccccc1)C(=O)NNc1nncc(-c2ccccc2)n1` (stereo not drawn) [Example 116, N2-(5-phenyl-1,2,4-triazin-3-yl) phenylalanine hydrazide (dihydrobromide hydrate)], the responders at 100 mg/kg is 30% in test [2] (Mus musculus, po, 0.25 h, 100 mg/kg oral, 15 Min., read-out: Phenylquinone Writhing Assay (% Control), percent analgesia); 60% in test [2] (setting [5]); 60% in test [2] (Mus musculus, po, 1 h, 100 mg/kg oral, 60 Min, read-out: Phenylquinone Writhing Assay (% Control), percent analgesia).
